# Earlier results, collected in patent US20050255458A1, “Drug discovery assays based on the biology of chronic disease” (priority 2002, published 2005).
# Counter-ions that a name gives are not always drawn. Like-named read-outs stand apart in the source and are kept apart here.
# Key:
# [1] = cited from earlier work
# [2] = test system: GABP; conditions: cited from earlier work; for GABP DNA binding activity, treated nuclear extracts: 3T3 nuclear extracts, DTT on extracts of DEM-treated cells, GSSG 5 mM; for GABP DNA binding activity (EMSA): 3T3 cells treated 2 h, single and double N-box probes
# [3] = test system: NOD mice; conditions: mouse, in vivo; cited from earlier work
# [4] = test system: ERK1 and ERK2; conditions: cited from earlier work; for MAPK activation: Wen 1996, Rao 1994
# [5] = test system: hair follicles (onset of anagen); conditions: cited from earlier work; for delay in hair regrowth: topical 10 nmol twice weekly, female CD-1 mice
# [6] = target: T1, AT1-receptor (Oryctolagus cuniculus, UniProt P34976); conditions: cited from earlier work
# T1 construct: from tissue; host or cells: whole animal: Watanabe and New Zealand White rabbits
# T1 sequence (P34976 1-359): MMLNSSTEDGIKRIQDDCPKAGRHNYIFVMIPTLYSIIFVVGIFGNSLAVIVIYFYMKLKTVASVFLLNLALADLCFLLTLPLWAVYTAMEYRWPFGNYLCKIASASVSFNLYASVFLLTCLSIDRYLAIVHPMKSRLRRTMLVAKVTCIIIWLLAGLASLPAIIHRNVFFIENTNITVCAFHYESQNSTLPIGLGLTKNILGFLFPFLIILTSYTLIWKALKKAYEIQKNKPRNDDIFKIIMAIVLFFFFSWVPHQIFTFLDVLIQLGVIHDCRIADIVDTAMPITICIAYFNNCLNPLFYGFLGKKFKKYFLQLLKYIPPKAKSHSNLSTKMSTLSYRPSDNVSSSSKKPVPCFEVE
# [7] = test system: double N-box-TATA-Luc; conditions: cited from earlier work; for decrease in luciferase expression: double N-box-TATA-Luc
# [8] = test system: apoE(−/−) mice; conditions: 48 hours post injection; cited from earlier work
# [9] = test system: TF; conditions: cited from earlier work
# [10] = test system: anagen hair follicles; conditions: Kondo 1990; cited from earlier work
# [11] = test system: papilla cells; conditions: cited from earlier work
# [12] = test system: ERK; conditions: cited from earlier work
# [13] = test system: AR gene; conditions: LNCaP; cited from earlier work
# [14] = test system: Elk-1; conditions: Peterziel 1999; cited from earlier work
# [15] = test system: TF; conditions: dose-dependent; cited from earlier work
# [16] = test system: ERK; conditions: Jurkat cells; cited from earlier work
# [17] = test system: ocular melanoma cell lines; conditions: cited from earlier work
# [18] = test system: TF antigen; conditions: starting on day 3, significant on day 28; cited from earlier work
# [19] = test system: metallothionein (MT); conditions: OC15 EC, OC15 END cells; cited from earlier work
# [20] = test system: apo(a) transgenic mice; conditions: 12 weeks; cited from earlier work
# [21] = test system: fibronectin; conditions: cited from earlier work
# [22] = test system: 20-3 cells; conditions: cited from earlier work
# [23] = test system: ERK1/2; conditions: cited studies, various cells; cited from earlier work
# [24] = test system: AChRδ and AChRε genes; conditions: cited from earlier work
# [25] = test system: TF; conditions: cited from earlier work; remark: listed apart in the source
molecule,measurement,setting,value
"CN(N=O)C(=O)N[C@H]1C(O)O[C@H](CO)[C@@H](O)[C@@H]1O (mixture of isomers) [STZ, streptozotocin]",increase in ratio of liver weight to body weight,[1]; 8 days after injection,12%
same,hepatocyte mitosis,[1]; 8 days,300 % of normal
same,increase in ratio of liver weight to body weight,[1]; 30 days,44%
same,hepatocyte mitosis,[1]; 90 days,25 % of normal
"O[C@H](CS)[C@H](O)CS (racemic) [DTT, dithiothreitol]","GABP DNA binding activity, treated nuclear extracts",[2],restored GABP binding activity
O=C(O)CCCC[C@@H]1CCSS1 (racemic) [lipoic acid],insulitis and diabetes,[3],decreased insulitis and delayed diabetes
CCCCC/C=C\C[C@H](O)/C=C/C=C\C/C=C\CCCC(=O)O [12-HETE],MAPK activation,[4],activation of MAPK
CCCCC[C@H](O)/C=C/C=C\C/C=C\C/C=C\CCCC(=O)O [15-HETE],MAPK activation,[4],activation of MAPK
C[C@]12CC[C@@H]3c4ccc(O)cc4CC[C@H]3[C@@H]1CC[C@@H]2O [17β-estradiol],delay in hair regrowth,[5],indefinite delay
same,hair growth,[5]; topical application (Chanda 2000),decreased hair growth
"O=C(O)CCC/C=C\C/C=C\C/C=C\C/C=C\CCCCCO [20-HETE, 20-hydroxyeicosatetraenoic acid]",ERK1 and ERK2 activation,"[4]; 0.25 μM, 10 min",activated ERK1 and ERK2
CCCCc1cc(C(=O)OC)cc(=O)n1Cc1ccc(-c2ccccc2-c2nnn[nH]2)cc1F [Bay 10-6734],fat-stained area in the aorta,"[6]; 25 mg/kg/day, high-cholesterol diet",5.3±1.4%
same,% of macrophage stained area/total plaque cross sectional area,[6]; 25 mg/kg/day,1±0.2%
same,cholesterol levels,[6]; hyperlipidemic or control animals,did not change the cholesterol levels
"CCOC(=O)/C=C\C(=O)OCC [DEM, diethyl maleate]",GABP DNA binding activity (EMSA),[2],decreased formation
same,luciferase expression from C/EBP-TA-Luc,[7]; 6 or 8 h treatment,no effect
same,decrease in luciferase expression,[7]; 6 h,28%
same,decrease in luciferase expression,[7]; 8 h,62%
"CCCCCCCCCCCCCCCC(=O)OC[C@H](COP(=O)([O-])OCC[N+](C)(C)C)OC(=O)CCCCCCCCCCCCCCC [DPPC, dipalmitoylphosphatidylcholine]",lipid content of aortic sinus,[8],18.1±4.7 % of plaque area
same,macrophage content of aortic sinus,[8],9.3±5.8 % of plaque area
"CC(=O)N[C@@H](CS)C(=O)O [NAC, N-Acetylcysteine]",GABP DNA binding activity (EMSA),[2],prevented
same,TF activity,"[9]; cells incubated with AGE-alb, 30 mmol/L",concentration dependent inhibition of TF activity
same,AGE-alb induced TF mRNA,[9],almost completely suppressed
C[C@]12CC[C@H]3[C@@H](CCC4=CC(=O)CC[C@@]43C)[C@@H]1CC[C@@H]2O [Testosterone],growth of isolated hair follicles,[10],growth inhibition
same,papilla cell proliferation,"[11]; 345 nM, 14 days",significantly decreased papilla cell proliferation
same,dermal papilla cell proliferation,"[11]; 10^−10 to 10^−7 M, alone or co-cultured (Obana 1997)",no effect
same,concentrations with no significant effect on papilla cell proliferation,[11]; Kiesewetter 1993,lower than 173 nM
same,Effect on [ERK^phos],[12]; SW-13 human adrenal carcinoma,↑[ERK^phos]
same,delay in hair regrowth,[5],small delay
same,Effect on [mRNAAR],[13],↓[mRNAAR]
CCNc1cccnc1N1CCN(CC2(C)CCc3c(C)c(O)c(C)c(C)c3O2)CC1.Cl (stereo not shown) [U78518F],insulitis and diabetes,[3],decreased insulitis and delayed diabetes
CC(O)(CS(=O)(=O)c1ccc(F)cc1)C(=O)Nc1ccc(C#N)c(C(F)(F)F)c1 (stereo not shown) [casodex],Elk-1 transcription activity,[14],increase in Elk-1 transcription activity
CC(C)(O)C(=O)Nc1ccc([N+](=O)[O-])c(C(F)(F)F)c1 [hydroxyflutamide],Elk-1 transcription activity,[14],increase in Elk-1 transcription activity
CN(CC(=O)NO)C(=O)[C@@H]1CCCC[C@@H]1C(=O)O [idrapril],TF activity,[15],decreased TF activity
C[C@H](CCC(=O)O)C[C@H](C)C[C@H](C)C(=O)/C=C(\O)[C@H](C)C[C@H](C)C/C=C/[C@@H](C)[C@@H](O)[C@@H](C)[C@@H](O)C[C@@H]1CC[C@@](C)([C@H]2CC[C@@](C)([C@@H](C)O)O2)O1 [ionomycin],ERK phosphorylation,[16],increased ERK phosphorylation
same,cell attachment to plates coated with fibronectin and other matrix proteins,[17],Significant inhibition
CCCCc1nc(Cl)c(CO)n1Cc1ccc(-c2ccccc2-c2nn[nH]n2)cc1 [losartan],plasma TF antigen levels,[18],negative effect on plasma TF antigen levels
NC(=O)c1cccnc1 [nicotinamide],insulitis and diabetes,[3],decreased insulitis and delayed diabetes
CC(=O)[O-].[Na+] [sodium acetate],MT mRNA levels,[19],no effect
CCC(=O)[O-].[Na+] [sodium propionate],MT mRNA levels,[19],no effect
CC/C(=C(\c1ccccc1)c1ccc(OCCN(C)C)cc1)c1ccccc1 [tamoxifen],decrease of area of focal apo(a) accumulation,[20],97%
same,decrease of average level of apo(a) in the vessel wall,[20],69%
same,decrease of lesion area,[20],92%
same,decrease of number of lipid lesions,[20],80%
same,cell attachment to plates coated with fibronectin and other matrix proteins,[17],significant inhibition of cell attachment
NCCCCCC(=O)O [ε-ACA],Lp(a) binding to fibronectin,[21],not effective against Lp(a) binding to fibronectin
same,binding of plasminogen to fibronectin,[21],inhibited binding of plasminogen to fibronectin
"EGF: EGF, an ERK agent",Effect on [ERK^phos],[12]; DU145,↑[ERK^Phos]
same,Effect on [ERK^phos],[12]; LNCaP,↑[ERK^phos]
same,Effect on [ERK^phos],[12]; PC-3,↑[ERK^phos]
same,Elk-1 transcription activity,[14],Elk-1 activation
same,Effect on [mRNAAR],[13],↓[mRNAAR]
TGFβ1: transforming growth factor-β1,labeling index after treatment,"[22]; 5 ng/ml, 72 h, permissive temperature (from 95%)",80%
same,labeling index after treatment,[22]; 72 h non-permissive then 24 h permissive (from 60%),below 10%
same,labeling index after treatment,[22]; non-permissive temperature (from 20%),less than 5%
heregulin,phosphorylation of ERK1/2,[23],phosphorylation of ERK1/2
same,increase in GABPα protein level,"[24]; Western blot, treated vs untreated cells",2 fold
same,phosphorylation of GABPα and GABPβ,[24]; chick primary myotubes,increased phosphorylation
same,transcription of AChRδ and AChRε genes,[24],increased transcription
same,transcription of utrophin,[24],stimulated transcription
oxidized glutathione [GSSG],"GABP DNA binding activity, treated nuclear extracts",[2],nearly abolished GABP DNA binding
vitamin E,insulitis and diabetes,[3],decreased insulitis and delayed diabetes
same,effect on LPS induced TF expression,[25],inhibited the LPS induced expression
same,effect on Cu^+2 induced procoagulant activity,"[25]; probucol 20, vitamin E 50, BHT 50, U74389G 20 μmol/L",inhibited the Cu^+2 induced procoagulant activity
